Laboratory results as given in patent US20110130425A1, “Use of H3 Histaminergic Agonists for the Treatment of Addiction to Drugs of Abuse” (priority 2009, published 2011).

Columns and labels:
alcohol seeking behavior = experiment: Relapse into seeking alcohol self-administration (reinstatement by alcohol or foot-shock stress); type: in vivo, Sprague-Dawley rat; conditions: L-histidine 1 g/kg orally, rats
Experimental: Fourteen male Sprague-Dawley rats obtained from Charles-River weighing 200 g at the beginning of the protocol are used. Rats are water-deprived for the few hours before the first overnight session. Rats are placed in an operant chamber (Panlab) with two levers. Pressing the “active” lever provides access to 0.1 ml of a 20% sucrose solution under a continuous reinforcement program. A light above the active lever signals availability of the solution in a drinking chamber for 20 seconds.
The following daily sessions take 60 minutes and water is provided ad libitum. […] Afterwards, the program is increased to Fixed Ratio 2 (FR2), i.e., two lever presses give access to one reinforcement. Self-administration is maintained next to FR3 and finally to FR5.
Before extinction sessions, saline is administered orally (5 ml/kg) to all rats. For extinction training, rats are placed in the same operant chambers but no alcohol access or cue light is contingent on lever press. Once rats decrease lever press to less than 10 presses per hour they are considered ready for reinstatement (relapse) procedures.
Before the reinstatement sessions, saline 5 ml/kg or L-histidine 1 g/kg (dissolved in saline and adjusted to pH 5) are administered orally to the rats. […]

alcohol relapse behavior = experiment: Alcohol Deprivation Effect (ADE) paradigm; type: in vivo, rat; conditions: L-histidine; rats
Experimental: The effects of a H3 histaminergic ligand, such as L-histidine, are tested in our well-established model of relapse-like drinking behavior.
Alcohol Deprivation Effect (ADE) paradigm: All rats are given continuous access to tap water and to 5%, 10% and 20% (v/v) ethanol solutions in their home cages. Spillage and evaporation is minimized by the use of self-made bottles. All drinking solutions are renewed weekly and the positions of the four bottles are changed to avoid location preferences. After eight weeks of continuous access, ethanol solutions are repeatedly withdrawn for 3-21 days (deprivation phases) every four weeks until the rats become alcohol-dependent (as measured by a sucrose and quinine tests). The effects of a H3 histaminergic ligand are then tested on the expression of the alcohol deprivation effect (=relapse behavior). A second ADE study is initiated 3 months later in order to study the persistence of treatment efficacy.
Past pharmacological studies in home cage drinking models were hampered by the fact that measurements were performed at 24 hour intervals. Thus the exact temporal profile of drug treatment could not be assessed under home cage drinking conditions and sometimes pharmacological effects became masked by the use of measurements every 24 hours. This problem has now been solved in our lab by the use of a fully-automated drinkometer system. […]

[1] = test system: reinforcement produced by cocaine; experiment: Reinforcement phase: cocaine self-administration dose/response; type: in vivo, rat; conditions: L-histidine 500 mg/kg single dose one hour before reinforcement; even at 0.03 mg/kg cocaine; rats

N[C@@H](Cc1c[nH]cn1)C(=O)O [L-histidine]
reinstatement of alcohol seeking behavior caused by stress (alcohol seeking behavior; foot-shock stress): decreases the reinstatement
reinstatement of alcohol seeking behavior caused by exposure to ethanol (alcohol seeking behavior): decreases the reinstatement
relapse into alcohol drinking after alcohol deprivation (alcohol deprivation effect) (alcohol relapse behavior): decreases relapse
tendency to seek cocaine (self-injections in 2 hours) [1]: diminished the tendency to seek cocaine
